Measured values taken from ChEMBL document CHEMBL5584236, “Development of novel bisphenol derivatives with a membrane-targeting mechanism as potent gram-positive antibacterial agents” (Eur J Med Chem, 2024).

Columns and labels:
Staphylococcus aureus [1] = assay: Antibacterial activity against methicillin-resistant Staphylococcus aureus NCTC10442 assessed as reduction in microbial growth incubated for 22 to 24 hrs by CLSI based broth microdilution method; type: functional; details: time 22-24 hrs
[2] = Hemolytic activity against rabbit RBC incubated for 1 hr by multimode plate reader; type: toxicity, cell-based, Oryctolagus cuniculus, Erythrocyte; details: rabbit red blood cells (erythrocytes)
Staphylococcus aureus [3] = assay: Antibacterial activity against methicillin-resistant Staphylococcus aureus N315 assessed as reduction in microbial growth incubated for 22 to 24 hrs by CLSI based broth microdilution method; type: functional; details: time 22-24 hrs
Staphylococcus aureus [4] = assay: Antibacterial activity against Staphylococcus aureus ATCC29213 assessed as reduction in microbial growth incubated for 22 to 24 hrs by CLSI based broth microdilution method; type: functional; details: time 22-24 hrs
Escherichia coli = assay: Antibacterial activity against Escherichia coli ATCC25922 assessed as reduction in microbial growth incubated for 22 to 24 hrs by CLSI based broth microdilution method; type: functional; details: time 22-24 hrs
Staphylococcus aureus [5] = assay: Antibacterial activity against Staphylococcus aureus ATCC29213 infected in C57BL6 mouse corneal infection model assessed as log reduction in CFU at 5 % administered topically on corneas for four times in 3 days by MHA plate counting method; type: functional; details: time 3 day
Staphylococcus aureus [6] = assay: Antibacterial activity against Staphylococcus aureus ATCC25923 assessed as reduction in microbial growth incubated for 22 to 24 hrs by CLSI based broth microdilution method; type: functional; details: time 22-24 hrs
Acinetobacter baumannii [7] = assay: Antibacterial activity against Acinetobacter baumannii ATCC17978 assessed as reduction in microbial growth incubated for 22 to 24 hrs by CLSI based broth microdilution method; type: functional; details: time 22-24 hrs
[8] = tested on: Staphylococcus epidermidis; assay: Antibacterial activity against Staphylococcus epidermidis CMCC26069 assessed as reduction in microbial growth incubated for 22 to 24 hrs by CLSI based broth microdilution method; type: functional; details: time 22-24 hrs
[9] = tested on: Staphylococcus epidermidis; assay: Antibacterial activity against Staphylococcus epidermidis ATCC12228 assessed as reduction in microbial growth incubated for 22 to 24 hrs by CLSI based broth microdilution method; type: functional; details: time 22-24 hrs
Klebsiella pneumoniae = assay: Antibacterial activity against Klebsiella pneumoniae ATCC10031 assessed as reduction in microbial growth incubated for 22 to 24 hrs by CLSI based broth microdilution method; type: functional; details: time 22-24 hrs
Acinetobacter baumannii [10] = assay: Antibacterial activity against Acinetobacter baumannii R28889 assessed as reduction in microbial growth incubated for 22 to 24 hrs by CLSI based broth microdilution method; type: functional; details: time 22-24 hrs
Staphylococcus aureus [11] = assay: Drug resistance, ratio of MIC for Staphylococcus aureus ATCC29213 after 13 passages to MIC for Staphylococcus aureus ATCC29213 after initial exposure; type: functional

Row | Structure (SMILES) | MIC (Staphylococcus aureus [1]) | HC50 at 1 h [2] | MIC (Staphylococcus aureus [3]) | MIC (Staphylococcus aureus [4]) | MIC (Escherichia coli) | log(activity) (Staphylococcus aureus [5]) | MIC (Staphylococcus aureus [6]) | MIC (Acinetobacter baumannii [7]) | MIC [8] | MIC [9] | MIC (Klebsiella pneumoniae) | MIC (Acinetobacter baumannii [10]) | Ratio (Staphylococcus aureus [11])
1 | COC(=O)[C@H](CCCNC(=N)N)NC(=O)[C@H](CCCNC(=N)N)NC(=O)[C@H](CCCNC(=N)N)NC(=O)COc1ccc(S(=O)(=O)c2ccc(OC/C=C(/C)CCC=C(C)C)cc2)cc1 | 0.78 µg/mL | 165 µg/mL | 0.78 µg/mL | 0.78 µg/mL | 6.25 µg/mL | – | – | – | – | – | – | – | –
2 | C=CCOc1ccc(S(=O)(=O)c2ccc(OCC(=O)N[C@@H](CCCNC(=N)N)C(=O)OC)cc2)cc1 | > 50 µg/mL | > 200 µg/mL | > 50 µg/mL | > 50 µg/mL | > 50 µg/mL | – | – | – | – | – | – | – | –
3 | CN[C@H](CC(C)C)C(=O)N[C@H]1C(=O)N[C@@H](CC(N)=O)C(=O)N[C@H]2C(=O)N[C@H]3C(=O)N[C@H](C(=O)N[C@H](C(=O)O)c4cc(O)cc(O)c4-c4cc3ccc4O)[C@H](O)c3ccc(c(Cl)c3)Oc3cc2cc(c3O[C@@H]2O[C@H](CO)[C@@H](O)[C@H](O)[C@H]2O[C@H]2C[C@](C)(N)[C@H](O)[C@H](C)O2)Oc2ccc(cc2Cl)[C@H]1O [VANCOMYCIN] | – | – | – | 0.78 µg/mL | – | 4.8 | 0.78 µg/mL | – | – | – | – | – | –
4 | C=CCOc1ccc(S(=O)(=O)c2ccc(OCCCCNC(=N)N)cc2)cc1 | 6.25 µg/mL | > 200 µg/mL | 6.25 µg/mL | 6.25 µg/mL | 50 µg/mL | – | – | – | – | – | – | – | –
5 | COC(=O)[C@H](CCCNC(=N)N)NC(=O)COc1ccc(S(=O)(=O)c2ccc(OCC=C(C)C)cc2)cc1 | 12.5 µg/mL | 200 µg/mL | 12.5 µg/mL | 25 µg/mL | > 50 µg/mL | – | – | – | – | – | – | – | –
6 | CCOC(=O)COc1ccc(S(=O)(=O)c2ccc(OCC=C(C)C)cc2)cc1 | > 50 µg/mL | > 200 µg/mL | > 50 µg/mL | > 50 µg/mL | > 50 µg/mL | – | – | – | – | – | – | – | –
7 | CC(C)=CCC/C(C)=C\COc1ccc(S(=O)(=O)c2ccc(OCCCCNC(=N)N)cc2)cc1 | 0.78 µg/mL | 144 µg/mL | 0.78 µg/mL | 1.56 µg/mL | > 50 µg/mL | – | – | – | – | – | – | – | –
8 | COC(=O)[C@H](CCCNC(=N)N)NC(=O)[C@H](CCCNC(=N)N)NC(=O)[C@H](CCCNC(=N)N)NC(=O)COc1ccc(S(=O)(=O)c2ccc(OCC=C(C)C)cc2)cc1 | 6.25 µg/mL | > 200 µg/mL | 6.25 µg/mL | 12.5 µg/mL | > 50 µg/mL | – | – | – | – | – | – | – | –
9 | CC(C)=CCOc1ccc(S(=O)(=O)c2ccc(OCCCCN)cc2)cc1 | 6.25 µg/mL | > 200 µg/mL | 6.25 µg/mL | 25 µg/mL | > 50 µg/mL | – | – | – | – | – | – | – | –
10 | CCNCCCCOc1ccc(S(=O)(=O)c2ccc(OCC=C(C)C)cc2)cc1 | 25 µg/mL | 70.8 µg/mL | 25 µg/mL | 25 µg/mL | > 50 µg/mL | – | – | – | – | – | – | – | –
11 | CC(C)=CCOc1ccc(S(=O)(=O)c2ccc(OCCOCCNC(=N)N)cc2)cc1 | 3.12 µg/mL | > 200 µg/mL | 3.12 µg/mL | 6.25 µg/mL | 50 µg/mL | – | – | – | – | – | – | – | –
12 | CC(C)Oc1ccc(S(=O)(=O)c2ccc(OCCCCNC(=N)N)cc2)cc1 | 6.25 µg/mL | > 200 µg/mL | 6.25 µg/mL | 12.5 µg/mL | 50 µg/mL | – | – | – | – | – | – | – | –
13 | COC(=O)[C@H](CCCNC(=N)N)NC(=O)[C@H](CCCNC(=N)N)NC(=O)[C@H](CCCNC(=N)N)NC(=O)COc1ccc(S(=O)(=O)c2ccc(OC(C)C)cc2)cc1 | > 50 µg/mL | > 200 µg/mL | > 50 µg/mL | > 50 µg/mL | > 50 µg/mL | – | – | – | – | – | – | – | –
14 | COC(=O)[C@H](CCCNC(=N)N)NC(=O)COc1ccc(S(=O)(=O)c2ccc(OC/C=C(/C)CCC=C(C)C)cc2)cc1 | 50 µg/mL | > 200 µg/mL | 50 µg/mL | > 50 µg/mL | > 50 µg/mL | – | – | – | – | – | – | – | –
15 | C=CCCCCCOc1ccc(S(=O)(=O)c2ccc(OCCCCNC(=N)N)cc2)cc1 | 0.78 µg/mL | > 200 µg/mL | 0.78 µg/mL | 1.56 µg/mL | > 50 µg/mL | – | – | – | – | – | – | – | –
16 | CC(C)=CCOc1ccc(S(=O)(=O)c2ccc(OCCCCNC(=N)N)cc2)cc1 | 3.12 µg/mL | > 200 µg/mL | 1.56 µg/mL | 3.12 µg/mL | 12.5 µg/mL | – | 3.12 µg/mL | 6.25 µg/mL | 1.56 µg/mL | 1.56 µg/mL | 6.25 µg/mL | 6.25 µg/mL | –
17 | O=S(=O)(c1ccc(O)cc1)c1ccc(O)cc1 | > 50 µg/mL | > 200 µg/mL | > 50 µg/mL | > 50 µg/mL | > 100 µg/mL | – | – | – | – | – | – | – | –
18 | C=CCOc1ccc(S(=O)(=O)c2ccc(OCC(=O)OCC)cc2)cc1 | > 50 µg/mL | > 200 µg/mL | > 50 µg/mL | > 50 µg/mL | > 50 µg/mL | – | – | – | – | – | – | – | –
19 | CCn1cc(C(=O)O)c(=O)c2cc(F)c(N3CCNCC3)cc21 [NORFLOXACIN] | – | – | – | – | – | – | – | – | – | – | – | – | 4
20 | CCN(CC)CCCCOc1ccc(S(=O)(=O)c2ccc(OCC=C(C)C)cc2)cc1 | 25 µg/mL | 69.4 µg/mL | 25 µg/mL | 50 µg/mL | > 50 µg/mL | – | – | – | – | – | – | – | –
21 | CC(C)=CCOc1ccc(S(=O)(=O)c2ccc(OCCCCN(C)C)cc2)cc1 | 12.5 µg/mL | 67.8 µg/mL | 12.5 µg/mL | 25 µg/mL | 50 µg/mL | – | – | – | – | – | – | – | –
22 | CCOC(=O)COc1ccc(S(=O)(=O)c2ccc(OC/C=C(/C)CCC=C(C)C)cc2)cc1 | > 50 µg/mL | > 200 µg/mL | > 50 µg/mL | > 50 µg/mL | > 50 µg/mL | – | – | – | – | – | – | – | –
23 | CCOC(=O)COc1ccc(S(=O)(=O)c2ccc(OC(C)C)cc2)cc1 | > 50 µg/mL | > 200 µg/mL | > 50 µg/mL | > 50 µg/mL | > 50 µg/mL | – | – | – | – | – | – | – | –
24 | COC(=O)[C@H](CCCNC(=N)N)NC(=O)[C@H](CCCNC(=N)N)NC(=O)COc1ccc(S(=O)(=O)c2ccc(OCC=C(C)C)cc2)cc1 | 6.25 µg/mL | > 200 µg/mL | 6.25 µg/mL | 25 µg/mL | > 50 µg/mL | – | – | – | – | – | – | – | –
25 | COC(=O)[C@H](CCCNC(=N)N)NC(=O)COc1ccc(S(=O)(=O)c2ccc(OC(C)C)cc2)cc1 | > 50 µg/mL | > 200 µg/mL | > 50 µg/mL | > 50 µg/mL | > 50 µg/mL | – | – | – | – | – | – | – | –
26 | CC[C@H](C)[C@H](NC(=O)CN)C(=O)NCC(=O)N[C@@H](C)C(=O)N[C@H](C(=O)N[C@@H](CC(C)C)C(=O)N[C@@H](CCCCN)C(=O)N[C@H](C(=O)N[C@@H](CC(C)C)C(=O)N[C@H](C(=O)N[C@H](C(=O)NCC(=O)N[C@@H](CC(C)C)C(=O)N1CCC[C@H]1C(=O)N[C@@H](C)C(=O)N[C@@H](CC(C)C)C(=O)N[C@H](C(=O)N[C@@H](CO)C(=O)N[C@@H](Cc1c[nH]c2ccccc12)C(=O)N[C@H](C(=O)N[C@@H](CCCCN)C(=O)N[C@@H](CCCNC(=N)N)C(=O)N[C@@H](CCCCN)C(=O)N[C@@H](CCCNC(=N)N)C(=O)N[C@@H](CCC(N)=O)C(=O)N[C@@H](CCC(N)=O)C(N)=O)[C@@H](C)CC)[C@@H](C)CC)[C@@H](C)O)[C@@H](C)O)C(C)C)C(C)C [MELITTIN] | – | – | – | – | – | – | – | 3.12 µg/mL | – | – | 6.25 µg/mL | 3.12 µg/mL | –
27 | CC(C)=CCOc1ccc(S(=O)(=O)c2ccc(OCCCNC(=N)N)cc2)cc1 | 3.12 µg/mL | > 200 µg/mL | 3.12 µg/mL | 6.25 µg/mL | 50 µg/mL | – | – | – | – | – | – | – | –
